The source made the active and inactive calls. The calls are words filed in the database; no cut-off is given here.
Key:
RAW264.7 [1] = assay: Inhibition of LPS-induced NO production in mouse RAW264.7 cells at 10 uM relative to control; assay type: functional
NCI-H1299 = assay: Antiproliferative activity against human NCI-H1299 cells; assay type: functional, cell-based
NCI-H460 = assay: Antiproliferative activity against human NCI-H460 cells; assay type: functional, cell-based
NCI-H1975 = assay: Antiproliferative activity against human NCI-H1975 cells; assay type: functional, cell-based
A549 = assay: Antiproliferative activity against human A549 cells; assay type: functional, cell-based
RAW264.7 [2] = assay: Cytotoxicity against mouse RAW264.7 cells at 10 uM measured after 24 hrs by CCK-8 assay relative to control; assay type: toxicity, cell-based; details: raw264.7, 24 h
RAW264.7 [3] = assay: Inhibition of LPS-induced NO production in mouse RAW264.7 cells at 5 uM relative to control; assay type: functional
RAW264.7 [4] = assay: Antiinflammatory activity against mouse RAW264.7 cells assessed as decrease in LPS-induced TNF-alpha level at 10 uM measured by ELISA assay; assay type: functional, cell-based
RAW264.7 [5] = assay: Antiinflammatory activity against mouse RAW264.7 cells assessed as decrease in LPS-induced IL-6 level at 10 uM measured by ELISA assay; assay type: functional, cell-based
RAW264.7 [6] = assay: Antiinflammatory activity against LPS-induced mouse RAW264.7 cells assessed as decrease in iNOS expression at 2.5 to 10 uM and measured by Western blot analysis; assay type: functional, cell-based; details: dose 2.5-10 µM
RAW264.7 [7] = assay: Antiinflammatory activity against LPS-induced mouse RAW264.7 cells assessed as decrease in phosphorylation levels of IkBalpha at 2.5 to 10 uM and measured by Western blot analysis; assay type: functional, cell-based; details: dose 2.5-10 µM
RAW264.7 [8] = assay: Antiinflammatory activity against LPS-induced mouse RAW264.7 cells assessed as decrease in phosphorylation levels of p65 at 2.5 to 10 uM and measured by Western blot analysis; assay type: functional, cell-based; details: dose 2.5-10 µM
RAW264.7 [9] = assay: Inhibition of LPS-induced NO production in mouse RAW264.7 cells; assay type: functional, cell-based
[10] = Cytotoxicity against mouse RAW264.7 cells assessed as cell viability at 10 uM measured after 24 hrs by CCK-8 assay relative to control; assay type: toxicity, cell-based; details: read-out: Activity

Row | SMILES | inhibition at 10 µM (RAW264.7 [1]) [%] | IC50 (NCI-H1299) [µM] | IC50 (NCI-H460) [µM] | IC50 (NCI-H1975) [µM] | IC50 (A549) [µM] | Activity (RAW264.7 [2]) | inhibition at 5 µM (RAW264.7 [3]) [%] | Activity (RAW264.7 [4]) | Activity (RAW264.7 [5]) | Activity (RAW264.7 [6]) | Activity (RAW264.7 [7]) | Activity (RAW264.7 [8]) | IC50 (RAW264.7 [9]) [µM] | viability at 24 h, 10 µM [10] [%]
1 | Cc1ccc2[nH]c3c(c2c1)C[C@@H]1C(=CC[C@@H]2[C@@]1(C)C(=O)C[C@]1(C)[C@@H]([C@H](C)CC[C@@H](O)C(C)(C)O)CC[C@@]21C)C3(C)C | 56.6 | 18.7 | > 30 | > 30 | 16.5 |  |  |  |  |  |  |  |  | 
2 | Cc1ccc(/C=C2\C[C@@H]3C(=CC[C@@H]4[C@@]3(C)[C@H](O)C[C@]3(C)[C@@H]([C@H](C)CC[C@@H](O)C(C)(C)O)CC[C@@]43C)C(C)(C)C2=O)cc1 |  | > 30 | 13.7 | 15.1 | 9.91 | Toxic |  |  |  |  |  |  |  | 
3 | C[C@H](CC[C@@H](O)C(C)(C)O)[C@H]1CC[C@@]2(C)[C@@H]3CC=C4[C@@H](Cc5cc6ccncc6nc5C4(C)C)[C@]3(C)[C@H](O)C[C@]12C |  | > 30 | 23.4 | > 30 | > 30 | Toxic |  |  |  |  |  |  |  | 
4 | C=C1C(=O)O[C@@H]2C3O[C@]3(C)CC/C=C(\C)CC[C@@H]12 (stereo not given in full) |  |  |  |  |  |  | 91.9 |  |  |  |  |  |  | 
5 | C[C@H](CC[C@@H](O)C(C)(C)O)[C@H]1CC[C@@]2(C)[C@@H]3CC=C4[C@@H](C/C(=C\c5cccnc5)C(=O)C4(C)C)[C@]3(C)C(=O)C[C@]12C |  | 16.4 | 16.5 | 12.7 | 12.6 | Toxic |  |  |  |  |  |  |  | 
6 | CC(C)c1ccc2[nH]c3c(c2c1)C[C@@H]1C(=CC[C@@H]2[C@@]1(C)C(=O)C[C@]1(C)[C@@H]([C@H](C)CC[C@@H](O)C(C)(C)O)CC[C@@]21C)C3(C)C | 57.4 | > 30 | > 30 | > 30 | 22.2 |  |  |  |  |  |  |  |  | 
7 | COc1ccc2[nH]c3c(c2c1)C[C@@H]1C(=CC[C@@H]2[C@@]1(C)C(=O)C[C@]1(C)[C@@H]([C@H](C)CC[C@@H](O)C(C)(C)O)CC[C@@]21C)C3(C)C | 87.6 | > 30 | > 30 | 19 | 21.9 |  |  | Active | Active | Active | Active | Active | 5.05 | 
8 | C[C@H](CC[C@@H](O)C(C)(C)O)[C@H]1CC[C@@]2(C)[C@@H]3CC=C4[C@@H](Cc5c([nH]c6ccc(Cl)cc56)C4(C)C)[C@]3(C)[C@H](O)C[C@]12C |  | 19.1 | 23.1 | 18.5 | > 30 |  |  |  |  |  |  |  |  | > 95
9 | C[C@H](CC[C@@H](O)C(C)(C)O)[C@H]1CC[C@@]2(C)[C@@H]3CC=C4[C@@H](Cc5cc6cc(Cl)ccc6nc5C4(C)C)[C@]3(C)[C@H](O)C[C@]12C |  | 13.2 | 19 | 16.4 | 8.22 | Toxic |  |  |  |  |  |  |  | 
10 | C[C@H](CC[C@@H](O)C(C)(C)O)[C@H]1CC[C@@]2(C)[C@@H]3CC=C4[C@@H](Cc5c([nH]c6ccccc56)C4(C)C)[C@]3(C)[C@H](O)C[C@]12C |  | 22.4 | 18.3 | 23.2 | 16.4 |  |  |  |  |  |  |  |  | > 95
11 | Cc1ccc(/C=C2\C[C@@H]3C(=CC[C@@H]4[C@@]3(C)C(=O)C[C@]3(C)[C@@H]([C@H](C)CC[C@@H](O)C(C)(C)O)CC[C@@]43C)C(C)(C)C2=O)cc1 |  | > 30 | 24.3 | 19.1 | 22.1 | Toxic |  |  |  |  |  |  |  | 
12 | C[C@H](CC[C@@H](O)C(C)(C)O)[C@H]1CC[C@@]2(C)[C@@H]3CC=C4[C@@H](CC[C@H](O)C4(C)C)[C@]3(C)[C@H](O)C[C@]12C [MOGROL] | 17.4 | > 100 | > 100 | 87.1 | 28.6 |  |  |  |  |  |  |  |  | 
13 | C[C@H](CC[C@@H](O)C(C)(C)O)[C@H]1CC[C@@]2(C)[C@@H]3CC=C4[C@@H](Cc5c([nH]c6ccccc56)C4(C)C)[C@]3(C)C(=O)C[C@]12C | 78.2 | > 30 | > 30 | > 30 | 27.9 |  |  |  |  |  |  |  |  | 
14 | C[C@H](CC[C@@H](O)C(C)(C)O)[C@H]1CC[C@@]2(C)[C@@H]3CC=C4[C@@H](C/C(=C\c5ccccc5)C(=O)C4(C)C)[C@]3(C)C(=O)C[C@]12C |  | > 30 | 32.5 | > 30 | 16.1 | Toxic |  |  |  |  |  |  |  | 
15 | O=c1[nH]cc(F)c(=O)[nH]1 [FLUOROURACIL] |  | 3.53 |  | 1.98 | 1.65 |  |  |  |  |  |  |  |  | 
16 | C[C@H](CC[C@@H](O)C(C)(C)O)[C@H]1CC[C@@]2(C)[C@@H]3CC=C4[C@@H](C/C(=C\c5ccc(Cl)cc5)C(=O)C4(C)C)[C@]3(C)[C@H](O)C[C@]12C |  | > 30 | 9.94 | 13.6 | 8.26 | Toxic |  |  |  |  |  |  |  | 
17 | C[C@H](CC[C@@H](O)C(C)(C)O)[C@H]1CC[C@@]2(C)[C@@H]3CC=C4[C@@H](C/C(=C\c5ccncc5)C(=O)C4(C)C)[C@]3(C)[C@H](O)C[C@]12C |  | 13.3 | 15 | 12.7 | 11.6 | Toxic |  |  |  |  |  |  |  | 
18 | C[C@H](CC[C@@H](O)C(C)(C)O)[C@H]1CC[C@@]2(C)[C@@H]3CC=C4[C@@H](C/C(=C\c5ccccc5)C(=O)C4(C)C)[C@]3(C)[C@H](O)C[C@]12C |  | 12 | 16 | 13.6 | 10.7 | Toxic |  |  |  |  |  |  |  | 
19 | C[C@H](CC[C@@H](O)C(C)(C)O)[C@H]1CC[C@@]2(C)[C@@H]3CC=C4[C@@H](Cc5cc6ccccc6nc5C4(C)C)[C@]3(C)[C@H](O)C[C@]12C |  | 20 | 18.9 | 18.7 | 17.2 | Toxic |  |  |  |  |  |  |  | 
20 | C[C@H](CC[C@@H](O)C(C)(C)O)[C@H]1CC[C@@]2(C)[C@@H]3CC=C4[C@@H](Cc5cc6cc(Br)ccc6nc5C4(C)C)[C@]3(C)[C@H](O)C[C@]12C |  | 27 | > 30 | 25.7 | 8.99 | Toxic |  |  |  |  |  |  |  | 
21 | C[C@H](CC[C@@H](O)C(C)(C)O)[C@H]1CC[C@@]2(C)[C@@H]3CC=C4[C@@H](Cc5cc6cc(F)ccc6nc5C4(C)C)[C@]3(C)[C@H](O)C[C@]12C |  | 11.7 | 16.3 | 14.7 | 7.55 | Toxic |  |  |  |  |  |  |  | 
22 | C[C@H](CC[C@@H](O)C(C)(C)O)[C@H]1CC[C@@]2(C)[C@@H]3CC=C4[C@@H](C/C(=C\c5cccnc5)C(=O)C4(C)C)[C@]3(C)[C@H](O)C[C@]12C |  | 14.6 | 11.1 | 13.4 | 11.1 | Toxic |  |  |  |  |  |  |  | 
23 | CC(C)c1ccc2[nH]c3c(c2c1)C[C@@H]1C(=CC[C@@H]2[C@@]1(C)[C@H](O)C[C@]1(C)[C@@H]([C@H](C)CC[C@@H](O)C(C)(C)O)CC[C@@]21C)C3(C)C |  | > 30 | 25 | > 30 | 25.4 |  |  |  |  |  |  |  |  | > 95
24 | Cc1ccc2[nH]c3c(c2c1)C[C@@H]1C(=CC[C@@H]2[C@@]1(C)[C@H](O)C[C@]1(C)[C@@H]([C@H](C)CC[C@@H](O)C(C)(C)O)CC[C@@]21C)C3(C)C | 45.1 | > 30 | 31.5 | > 30 | 22.6 |  |  |  |  |  |  |  |  | 
